Literature values, collected in patent publication US20220193002A1, “PROCESS FOR THE PREPARATION OF BAKUCHIOL COMPOSITION SUBSTANTIALLY FREE OF FURANOCOUMARIN IMPURITIES” (K V Natural Ingredients PVT LTD, priority 2020, published 2022).

System: S. mutans
Settings: cell growth inhibited in a concentration dependent manner; complete prevention of growth

C=C[C@@](C)(/C=C/c1ccc(O)cc1)CCC=C(C)C [bakuchiol, 4-[(1E,3S)-3-ethenyl-3,7-dimethylocta-1,6-dienyl]phenol]
concentration at which the growth of S. mutans was completely prevented: 20 µg/mL
